In PMC9503898, “Synthesis and Evaluation of Two Long-Acting SSTR2 Antagonists for Radionuclide Therapy of Neuroendocrine Tumors” (Pharmaceuticals, 2022):
Positions of bridges follow the written chain, without caps; N, C: chain ends. Non-standard residues stand in square brackets, D forms with d. Residues, ends and D or L forms follow the SMILES beside them. *: point of attachment. DOTA = O=C(O)CN1CCN(CC(=O)O)CCN(CC(=O)*)CCN(CC(=O)O)CC1; dPhe(4-NHCONH2) = NC(=O)Nc1ccc(C[C@@H](N)C(=O)O)cc1; Dihydroorotyl(S) = O=C1C[C@@H](C(=O)*)NC(=O)N1; Phe(4-Cl) = N[C@@H](Cc1ccc(Cl)cc1)C(=O)O; Phe(4-NH2) = Nc1ccc(C[C@H](N)C(=O)O)cc1

Legend:
U2OS-SSTR2 cells = assay: Uptake and internalization assay; assay type: cell-based, human; conditions: 10^−9 M, 2 h, 37 °C, gamma counter
Procedure: Human osteosarcoma cells (U2OS) stably expressing the SSTR2 receptor were used in all in vitro cell assays. Cells were cultured in Dulbecco’s modified Eagle’s medium (DMEM) from Gibco (Paisley, UK) supplemented with 2 mM L-glutamine, 10% fetal bovine serum (FBS), 50 units/mL penicillin, and 50 μg/mL streptomycin (Sigma Aldrich; Haarlerbergweg, The Netherlands) and maintained at 37 °C and in a 5% CO2 humidified chamber. Passages were performed weekly using trypsin/EDTA (0.05%/0.02% w/v).
Cells were seeded in 6-well plates 48 h before the experiment (2 × 10^5 cells/well). […] After incubation, medium was removed, and cells were washed twice with PBS. The membrane-bound fraction was collected by incubating cells with an acid buffer (50 mM glycine, 100 mM sodium chloride (NaCl), pH 2.8) for 10 min at rt. Cells were lysed using 0.5 M NaOH for 10 min at rt to acquire the internalized fraction. Both fractions were counted in a γ-counter, and data were expressed as percentage of added dose.

[1] = test system: H69 tumor tissues expressing SSTR2; assay: Uptake and autoradiography of H69 tumor sections; assay type: binding, human; conditions: 10^−9 M, 90 min, rt, 10 μm sections, phosphor screen 48 h
Procedure: Subcutaneous fresh frozen H69 tumor tissues were cut at 10 μm thickness and immediately mounted on Starfrost glass slides (Thermo Scientific; Bleiswijk, The Netherlands). Tissue sections were incubated with washing buffer (167 mM Tris-HCl, 5 mM MgCl2) containing 0.25% BSA for 10 min at rt to prevent nonspecific binding. […] Each slide was drained off and washed with PBS. Finally, the slides were exposed to super-resolution phosphor screens for 48 h and imaged with the Cyclone system (PerkinElmer; Waltham, MA, USA). Images were analyzed and quantified using the Optiquant software Version 5 (PerkinElmer; Waltham, MA, USA).

[2] = set-up: method as in PMID 29668724; conditions: literature value; cited from earlier work
in vivo [3] = conditions: mouse, iv, 20 MBq/0.5 nmol per animal, total radioactivity
in vivo [4] = conditions: mouse, iv, 0.5 nmol, total radioactivity

tissue uptake per volume at 4 h (in vivo [3]): 4 ± 0.6 %ID/mL
tissue uptake per volume at 24 h (in vivo [3]): 3.3 ± 0.7 %ID/mL
tissue uptake per volume at 48 h (in vivo [3]): 2.1 ± 0.5 %ID/mL
tissue uptake per volume at 72 h (in vivo [3]): 1.8 ± 0.4 %ID/mL
tissue to tissue ratio at 4 h (in vivo [4]): 0.6 ± 0.05
tissue to tissue ratio at 72 h (in vivo [4]): 1.2 ± 0.3
tissue uptake at 4 h (in vivo [4]; Bone Marrow uptake): 1.1 ± 2 %ID/g
tissue uptake at 4 h (in vivo [4]; Intestine uptake): 0.5 ± 0.1 %ID/g
tissue uptake at 4 h (in vivo [4]; Kidneys uptake): 12.6 ± 1.2 %ID/g
tissue uptake at 24 h (in vivo [4]; Kidneys uptake): 8.6 ± 2.3 %ID/g
tissue uptake at 48 h (in vivo [4]; Kidneys uptake): 4.1 ± 0.2 %ID/g
tissue uptake at 72 h (in vivo [4]; Kidneys uptake): 3.4 ± 1.4 %ID/g
tissue uptake at 4 h (in vivo [4]; Liver uptake): 0.5 %ID/g
tissue uptake at 24 h (in vivo [4]; Liver uptake): 0.3 %ID/g
tissue uptake at 4 h (in vivo [4]; Lung uptake): 1.3 ± 0.3 %ID/g
tissue uptake at 24 h (in vivo [4]; Lung uptake): 0.4 %ID/g
tissue uptake at 4 h (in vivo [4]; Pancreas uptake): 3.5 ± 0.4 %ID/g
tissue uptake at 48 h (in vivo [4]; Pancreas uptake): 0.6 ± 0.1 %ID/g
tissue uptake at 72 h (in vivo [4]; Pancreas uptake): 0.3 %ID/g
tissue uptake at 4 h (in vivo [4]; Skin uptake): 0.3 ± 0.1 %ID/g
tissue uptake at 4 h (in vivo [4]; Spleen uptake): 0.3 ± 0.1 %ID/g
tissue uptake at 4 h (in vivo [4]; Stomach uptake): 1.7 ± 0.3 %ID/g
tissue uptake at 24 h (in vivo [4]; Stomach uptake): 1.5 ± 1.2 %ID/g
tissue uptake at 48 h (in vivo [4]; Stomach uptake): 0.6 ± 0.2 %ID/g
tissue uptake at 72 h (in vivo [4]; Stomach uptake): 0.4 ± 0.1 %ID/g
tissue uptake at 4 h (in vivo [4]; Tumor uptake): 8.4 ± 0.5 %ID/g
tissue uptake at 24 h (in vivo [4]; Tumor uptake): 6.1 ± 0.5 %ID/g
tissue uptake at 48 h (in vivo [4]; Tumor uptake): 4.6 ± 0.3 %ID/g
tissue uptake at 72 h (in vivo [4]; Tumor uptake): 3.6 ± 0.4 %ID/g
SMILES: C[C@@H](O)[C@@H]1NC(=O)[C@H](CCCCN)NC(=O)[C@@H](Cc2ccc(NC(N)=O)cc2)NC(=O)[C@H](Cc2ccc(NC(=O)[C@@H]3CC(=O)NC(=O)N3)cc2)NC(=O)[C@H](NC(=O)[C@H](Cc2ccc(Cl)cc2)NC(=O)CN2CCN(CC(=O)O)CCN(CC(=O)O)CCN(CC(=O)O)CC2)CSSC[C@@H](C(=O)N[C@H](Cc2ccc(O)cc2)C(N)=O)NC1=O [[^177Lu]Lu-JR11, metal not drawn] ({DOTA}-[Phe(4-Cl)][dC][Phe(4-NH2)](Dihydroorotyl(S))[dPhe(4-NHCONH2)]KTC[dY]-NH2; disulfide 2-7; N-terminus and C-terminus assumed)
Total uptake in U2OS-SSTR2 cells (U2OS-SSTR2 cells): 16.2 ± 3.0 % added dose
Radioactive uptake in H69 tumor tissue sections (autoradiography) [1]: 930 ± 37 DLU/mm^2
Log D7.4 [2]: −2.5 [18]
